According to PMC12263422, “Cryo-EM structure of the human THIK-1 K2P K^+ channel reveals a lower Y gate regulated by lipids and anesthetics” (Nature Structural & Molecular Biology, 2025):
Substitutions are numbered along the chain they refer to. Values joined by “and” are separate entries in the source; they are usually repeats but may differ in a detail not shown here. Identical values can stand only once. Like-named read-outs stand apart in the source and are kept apart here.

What was measured:
THIK-1 C135A = biological target: T1, THIK-1 C135A (Homo sapiens, UniProt Q9HB14, C135A); test: Inside-out excised patch recordings, oocytes, THIK-1 C135A mutant; format: cell-based; conditions: read-out: TPenA IC50
T1 construct: expressed in transfected cells; host or cells: Xenopus oocytes (mRNA injection)
T1 sequence (Q9HB14 1-408 C135A): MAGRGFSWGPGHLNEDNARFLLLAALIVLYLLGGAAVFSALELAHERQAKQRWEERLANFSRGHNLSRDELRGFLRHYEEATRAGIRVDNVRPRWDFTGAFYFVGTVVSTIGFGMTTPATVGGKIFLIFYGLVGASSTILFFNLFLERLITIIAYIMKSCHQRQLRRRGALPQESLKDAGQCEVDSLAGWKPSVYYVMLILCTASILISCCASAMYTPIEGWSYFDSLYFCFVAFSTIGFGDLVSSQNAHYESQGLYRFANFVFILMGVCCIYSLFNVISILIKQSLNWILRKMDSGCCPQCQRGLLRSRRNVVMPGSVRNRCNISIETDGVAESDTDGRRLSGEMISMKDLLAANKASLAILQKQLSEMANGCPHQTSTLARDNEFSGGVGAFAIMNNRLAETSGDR
Source text: (§1) Human K2P13.1 THIK-1 (GenBank accession number: NM_022054) and human K2P12.1 THIK-2 (NM_022055.1) were used in this study. For functional expression studies, the respective K^+ channel subtype coding sequences were subcloned into the oocyte expression vector pSGEM or the dual-purpose expression vector pFAW[41] and verified by sequencing. All mutant channels were obtained by site-directed mutagenesis and verified by sequencing. To increase surface expression and macroscopic currents, measurements of THIK-2 channels used a mutated ER retention motif, (R11A R12A R14A R15A R16A; THIK-2*)[20]. Vector DNA was linearized with NheI or MluI, and mRNA was synthesized in vitro using the SP6 or T7 AmpliCap Max High Yield Message Maker Kit (Cellscript, USA) or HiScribe T7 ARCA mRNA Kit (New England Biolabs).
Two-electrode voltage–clamp (TEVC) studies were performed in Xenopus oocytes. All animal use conformed to the Guide for the Care and Use of Laboratory Animals (NIH Publication 85–23), and all experiments using Xenopus toads were approved by the local ethics panels. Oocytes were stored at 17 °C in ND96 recording solution composed of (in mM): 96 NaCl, 2 KCl, 1.8 CaCl2, 1 MgCl2, 5 HEPES (pH 7.5 adjusted with NaOH and HCl), supplemented with Na-pyruvate (275 mg L^–1), theophylline (90 mg L^–1) and gentamicin (50 mg L^–1). Oocytes were injected with 1 ng mRNA for WT or mutant channels, and were incubated for 24–48 h at 17 °C. Two-electrode voltage clamp recordings were then performed as previously described[42],[43]. […] Currents were recorded with an EPC10 amplifier (HEKA Electronics) and sampled at 10 kHz or higher, with filtering set to 3 kHz (–3 dB) or higher, as appropriate for sampling rate. For measurements of GPCR activation, whole-cell currents were recorded for THIK-1 in transiently transfected HEK-293 cells. […] Single-channel currents were recorded with an Axopatch 200B amplifier through a Digidata 1440A digitizer (Molecular Devices). Data were filtered at 2 kHz and recorded at a 200-kHz sampling rate with the program Clampex (Molecular Devices). […]

THIK-1 V269A = biological target: T2, THIK-1 V269A (Homo sapiens, UniProt Q9HB14, V269A); test: Inside-out excised patch recordings, oocytes, THIK-1 V269A mutant; format: cell-based; conditions: for IC50: read-out: TPenA IC50
T2 construct: expressed in transfected cells; host or cells: Xenopus oocytes (mRNA injection)
T2 sequence (Q9HB14 1-408 V269A): T1 sequence (Q9HB14 1-408 C135A) with A135C, V269A
Source text: as §1
Two-electrode voltage–clamp (TEVC) studies were performed in Xenopus oocytes. All animal use conformed to the Guide for the Care and Use of Laboratory Animals (NIH Publication 85–23), and all experiments using Xenopus toads were approved by the local ethics panels. Oocytes were stored at 17 °C in ND96 recording solution composed of (in mM): 96 NaCl, 2 KCl, 1.8 CaCl2, 1 MgCl2, 5 HEPES (pH 7.5 adjusted with NaOH and HCl), supplemented with Na-pyruvate (275 mg L^–1), theophylline (90 mg L^–1) and gentamicin (50 mg L^–1). Oocytes were injected with 1 ng mRNA for WT or mutant channels, and were incubated for 24–48 h at 17 °C. Two-electrode voltage clamp recordings were then performed as previously described[42],[43]. For macroscopic patch–clamp measurements, oocytes were obtained as described above incubated at 17 °C in a solution containing (mM): 54 NaCl, 30 KCl, 2.4 NaHCO3, 0.82 MgSO4 ×7 H2O, 0.41 CaCl2, 0.33 Ca(NO3)2 ×4 H2O and 7.5 TRIS (pH 7.4 adjusted with NaOH and HCl) for 1–4 days before use. Excised patch recordings in inside-out configuration conditions were performed at room temperature. Patch pipettes were made from thick-walled borosilicate glass GB 200TF-8P (Science Products), had resistances of 0.2–0.5 MΩ (tip diameter, 10–25 µm) and filled with a pipette solution (in mM): 120 KCl, 10 HEPES and 3.6 CaCl2 (pH 7.4 adjusted with KOH and HCl). Intracellular bath solutions and compounds were applied to the cytoplasmic side of excised patches for the various K^+ channels through a gravity flow multi-barrel pipette system. The intracellular solution had the following composition (in mM): 120 KCl, 10 HEPES, 2 EGTA and 1 pyrophosphate (pH adjusted with KOH and HCl). Currents were recorded with an EPC10 amplifier (HEKA Electronics) and sampled at 10 kHz or higher, with filtering set to 3 kHz (–3 dB) or higher, as appropriate for sampling rate. For measurements of GPCR activation, whole-cell currents were recorded for THIK-1 in transiently transfected HEK-293 cells. Cells were stimulated by a ramp protocol between −100 and +60 mV (holding potential, −80 mV). The pipette solution was composed of (in mM): 140 KCl, 2 MgCl2, 1 CaCl2, 2.5 EGTA and 10 HEPES (pH 7.3 adjusted with KOH and HCl). The extracellular bath solution had the following composition (in mM): 135 NaCl, 5 KCl, 2 MgCl2, 2 CaCl2, 10 glucose and 10 HEPES pH (pH 7.3 adjusted with NaOH and HCl). Oxotremorine M (Oxo-M) was added to extracellular bath solution to obtain the final concentration. Single-channel currents were recorded with an Axopatch 200B amplifier through a Digidata 1440A digitizer (Molecular Devices). Data were filtered at 2 kHz and recorded at a 200-kHz sampling rate with the program Clampex (Molecular Devices). Pipette solution and bath solution for cell-attached recordings contained (in mM): 140 KCl, 2 MgCl2, 1 CaCl2 and 10 HEPES (pH 7.4 adjusted with KOH and HCl). For inside-out recordings, the bath solution contained (in mM): 140 KCl, 2 MgCl2, 1 CaCl2 and 10 HEPES (pH 7.2 adjusted with KOH and HCl). All experiments were conducted at room temperature. […]

**Q.** How did the IC50 (THIK-1 C135A; C135A mutant) turn out when `CCCCC[N+](CCCCC)(CCCCC)CCCCC` [TPenA, tetrapentylammonium] was run?
**A.** 1060 µM

**Q.** And the IC50 (THIK-1 C135A; THIK-1 C135A, individual recordings)?
**A.** 1250 µM and 1270 µM and 1530 µM and 1180 µM and 748 µM and 1440 µM and 621 µM and 466 µM

**Q.** What about the IC50 (THIK-1 C135A; THIK-1 C135A, mean) of the same compound?
**A.** 1060 µM

**Q.** What about the Normalized currents (THIK-1 V269A; THIK-1 V269A, 1 µM TPenA) of the same compound?
**A.** 1.00

**Q.** And the Normalized currents (THIK-1 V269A; THIK-1 V269A, 4 µM TPenA)?
**A.** 0.97

**Q.** What about the Normalized currents (THIK-1 V269A; THIK-1 V269A, 15.6 µM TPenA) of the same compound?
**A.** 0.93

**Q.** And the Normalized currents (THIK-1 V269A; THIK-1 V269A, 62.5 µM TPenA)?
**A.** 0.87

**Q.** And the Normalized currents (THIK-1 V269A; THIK-1 V269A, 250 µM TPenA)?
**A.** 0.78

**Q.** What about the Normalized currents (THIK-1 V269A; THIK-1 V269A, 1000 µM TPenA) of the same compound?
**A.** 0.65

**Q.** And the Normalized currents (THIK-1 V269A; THIK-1 V269A, 4000 µM TPenA)?
**A.** 0.45

**Q.** And the IC50 (THIK-1 V269A; THIK-1 V269A, mean)?
**A.** 2200 µM

**Q.** And the IC50 (THIK-1 V269A; V269A mutant)?
**A.** 2200 µM
